Patent US8765641B2, “Chip production, hybridization and data interpretation for antibody and protein microarrays” (Detroit R&D, Inc., priority 2004, dated 2014)
Where “and” joins values, the source holds several entries; their conditions need not be identical. Equal entries are not always repeated. Where two headings read alike, the source gives them in different places. Marks after values point to notes of the source that are not given here.

How the values were obtained:
[1] = test system: Tubulin-alpha; conditions: rat hepatic proteins after PB treatment, 500 μg/ml IgG (ascites fluid), Flag internal control
[2] = test system: CYP3A (CYP3A1/2/23); conditions: anti-serum spots, IgG concentration not given
[3] = test system: Alpha-actin; conditions: rat hepatic proteins after PB treatment; 500 μg/ml IgG (ascites fluid); Flag internal control
[4] = test system: CYP3A; assay: Western blot analysis of rat hepatic proteins after PB treatment; type: in vivo; conditions: rat hepatic microsomal proteins, PB treated vs control; two sets; mean and difference from the mean
Description: (§1) SDS-PAGE was carried out on 10% or 15% gels. The separated proteins were electroblotted onto cellulose membrane and Western blot analyses were carried out using horseradish peroxidase-system with electrochemiluminescent substrates.
(§2) This microarray result was obtained by combining results from Control 1 and PB 1 assays and Control 2 and PB 2 assays. Expression levels of CYP2B1/2B2, CYP2B1, COX-2, CYP2D, CYP3A1/2/23, CYP2C11 and G3PDH in Rat #1 (Control 1), Rat #2 (PB 1), Rat #3 (Control 2) and Rat #4 (PB 2) were verified by Western blot analyses of microsomal and cytosolic proteins. Protein bands obtained by Western blot analyses were quantitated using a densitometer (Molecular Dynamics). […] COX-2 expression usually detected in microsomes also detected in cytosol. The cytosolic COX-2 levels were normalized by G3PDH levels.

[5] = test system: CYP2D; assay: as above; type: in vivo; conditions: rat hepatic microsomal proteins, PB treated vs control; two sets; mean and difference from the mean
Description: as §1, §2

[6] = test system: Tubulin-beta; conditions: rat hepatic proteins after PB treatment; 500 μg/ml IgG; Flag internal control
[7] = test system: CYP2B1/2B2; assay: Western blot analysis of rat hepatic proteins after PB treatment; type: in vivo; set-up: key: Highly Induced: Not detected in control but strong band after PB treatment.; Moderately Induced: Not detected in control but bands with a medium intensity detected after PB treatment; conditions: rat hepatic microsomal proteins, PB treated vs control
Description: as §1, §2

CCC1(c2ccccc2)C(=O)NC(=O)NC1=O [phenobarbital]
Fold-Change of Protein Expression Level, Tubulin-alpha [1]: 1.7 fold and 1.7^a fold
Fold-Change of Protein Expression Level, Tubulin-alpha ([1]; listed as PB): 1.7 fold
CYP3A expression after phenobarbital treatment, array analysis [2]: increased higher than two-fold
Fold-Change of Protein Expression Level, Alpha-actin [3]: 0.8 fold
fold-increase of protein expression level, Western Blot Analysis, CYP3A [4]: 7.00 ± 4.80^d fold
fold-increase of protein expression level, Western Blot Analysis, CYP2D [5]: failed to increase
Fold-Change of Protein Expression Level, Tubulin-beta [6]: 0.7 fold
fold-increase of protein expression level, Western Blot Analysis, CYP2B1/2B2 [7]: Highly Induced^b
